# Measured values: patent publication US20040039530A1, “Pharmacokinetic tool and method for predicting metabolism of a compound in a mammal” (priority 2003, published 2004)
# Assay: Hepatocyte assay: concentration versus time data of parent compound, fitted for Km, Vmax and Kd
# Protocol: Traditionally, initial experiments were performed to get a “ball park” number around the Km, then additional studies performed “near” that concentration. A data analyst, or fitting expert, then took the data and determined the Km and Vmax. Some expertise is required to be able to interpret the initial studies and then to fit the data to determine Km. […] Especially preferred concentrations are 0.4, 2, 10, 50, 125 and 250 μM.
# Equation 1 is the equation that incorporates transport and makes the assumption that the changes in concentration with time cannot be fully explained using the Michaelis-Menten equation alone. Kd·C is the transport term where Kd is the first order rate constant and C is the concentration outside of the hepatocyte or cell. dC/dt is the rate of metabolism, Vmax is the maximum possible rate of metabolism and Km is the Michaelis-Menten constant defined as concentration where dC/dt equals ½*Vmax. [formula]
# The best fit lines and simulated data are obtained using a minimization algorithm capable of determining Vmax, Km, and Kd values that provide minimum deviation of the simulated data from the experimental data. In this example the minimization algorithms were completed using the computer based application, Kinetica®.
# Briefly, the minimization algorithms uses the main function “mrqmin” that relies on several other functions to complete the analysis. This function assignees different initial conditions to fitted variables and picks the best set of results based on the minimal value of the computed “sum of squares”. Some statistical information can be collected in this routine as well. The “mrqmin” function performs one iteration of Marquardt method. Algorithmically, it is the same as listed in Numerical Recipes with modifications to parameter input, output and exchanges, and some modifications to intermediate computations. The “mrqmin” calls “mrqcof” function for some intermediate computations. […]
# Goodness of fit is determined by evaluation of % CV, and percent unchanged parent compounds remaining at 240 minutes at 0.4 μM.
structure (smiles),measurement,setting,value
Oc1ccc2c3c1O[C@H]1[C@@H](O)CC[C@@]4(O)[C@@H](C2)N(CC2CCC2)CC[C@]314 [Nalbuphine],Km,"Initial concentrations, hepatocyte assay",12.2 µM
same,Km,"Std (standardized) concentrations, hepatocyte assay",10.9 µM
same,Km,"determined by non-linear fitting and minimization, compound-specific initial concentrations (Table 9)",10 to 50 µM
